# Tested on: H3K9ac (the target of SIRT1, SIRT2 and SIRT6)
# Assay: Sirtuin activity assay in HDF: H3K9ac levels (Western blot); on SIRT1,2,6 H3K9ac: key: ↑: increase; ↓: decrease; hyphens that indicate no effect (-)
# Format: cell-based, human
# Settings: HDF treated 24h
# Procedure: (§1) Figure 1 (A) Schematic representation of the compound testing for sirtuin activity evaluation in HDF. Cells were treated with or without the compounds for 24h and harvested for analysis. […] (C) Western Blot analysis and (D) quantification of H4K16ac and H3K9ac levels in cells treated with Resveratrol or Shikimic acid at the indicated concentrations. H4K16 and H3K9 levels were normalized to H4 and H3 levels respectively. Student T-test, *p<0.05, **p<0.01, ***p<0.001.
# (§2) HDFs were plated in 100x20 mm2 cell culture plates and after 24h, fresh cell culture medium containing the compounds was added. After 24h, cells were detached with cell scrapers, harvested, and processed for qPCR or western blot.
# (§3) Protein levels were analyzed as previously described. Cells were directly lysed in 1x Laemmli Buffer (Bio-Rad, USA), incubated at 95° C and centrifuged. Supernatant was subjected to SDS-polyacrylamide gel electrophoresis, and successive steps were performed as described. The list of antibodies used is included in Supplementary Table 2.
row,SMILES,effect on H3K9ac levels
1,c1coc(CNc2ncnc3[nH]cnc23)c1 [Kinetin],reduced the levels of H3K9ac only
2,"O=c1c(O)c(-c2ccc(O)c(O)c2)oc2cc(O)cc(O)c12 [Quercetin, reference compound]",induced a similar effect on both targets
3,"Oc1ccc(/C=C/c2cc(O)cc(O)c2)cc1 [Resveratrol, reference compound]",induced a similar effect on both targets
4,Oc1ccc2c(c1)OCO2 [Sesamol],induced a similar effect on both targets
5,C/C(=C\CNc1ncnc2[nH]cnc12)CO [Zeatin],reduced the levels of H3K9ac only

# Same assay, conditions: HDF treated 24h, Figure 1B
row,SMILES,"SIRT1,2,6 H3K9ac"
1,O=C(OC[C@H]1OC(O)[C@@](O)(COC(=O)c2cc(O)c(O)c(O)c2)[C@@H]1O)c1cc(O)c(O)c(O)c1 (some centres unmarked) [Hamamelitannin],-
2,"Cc1ncc(CO)c(CO)c1O [Pyridoxine, reference compound]",-
3,NC(=S)N/N=C/c1ccccc1O [Salicyladehyde thiosemicarbazone],-
4,"O=C(O)c1ccccc1O [Salicylic acid, reference compound]",-
5,COc1cc(C(=O)O)cc(OC)c1O [Syringic acid],-
6,COc1cc(C=O)ccc1O [Vanillin],-

# Tested on: primary human dermal fibroblasts (HDFs)
# Assay: not given
# Settings: HDFs, WST-1 cell viability test
# Text: In our efforts to identify novel factors that could prevent skin cell senescence, we developed a screening process to identify new modulators of the protective role of sirtuins in UV-induced senescence. For this purpose, we established a culture of primary human dermal fibroblasts (HDFs). […] Our first step in the screening was to establish the optimal concentrations of these compounds in the case of HDFs. […] Once established, we took these parameters into account to decide the specific working range of concentrations for each compound.
# Human dermal fibroblasts (HDFs) (Promocell, Germany) from 40-year old Caucasian women were used as the in vitro model for compound viability and efficacy screening. Cells were cultured in Dulbecco's modified eagle medium (DMEM) low glucose (Biowest, France) supplemented with 10% fetal bovine serum (FBS) (Capricorn Scientific, Germany) and 10 U/mL penicillin/streptomycin (Biowest, France) in a humidified incubator at 37° C and 5% CO2. For cell passage, cells at 80% confluence were trypsinized and plated at 60% confluence. Cells between passage 13 and 18 were used for the assays. For the SIRT1 in vitro assay, HEK293 cells (ATCC, USA), used to transfect and immunoprecipitate SIRT1 protein, were grown in DMEM high glucose (Thermo Fisher Scientific, USA), supplemented with 10% FBS in a humidified incubator at 37° C and 5% CO2. The following experiments were all performed in triplicate.
# (§4) The protocol for senescence induction using UVB irradiation is described in the Supplementary Methods. SA-β-Gal staining, WST-1, sulforhodamine B (SRB) and trypan blue assays were performed as previously described. For the siRNA experiments, the protocol for senescence induction using UVB irradiation was the same as in the Supplementary Methods. Specific siRNA (Horizon discovery, UK) for SIRT1, SIRT2, SIRT6, BiP or scramble siRNA were incubated for 6 hours before each irradiation step.
row,SMILES,LD50 [mM]
1,O=C(OC[C@H]1OC(O)[C@@](O)(COC(=O)c2cc(O)c(O)c(O)c2)[C@@H]1O)c1cc(O)c(O)c(O)c1 (some centres unmarked) [Hamamelitannin],0.247
2,"O=c1c(O)c(-c2ccc(O)c(O)c2)oc2cc(O)cc(O)c12 [Quercetin, reference compound]",0.604
3,NC(=S)N/N=C/c1ccccc1O [Salicyladehyde thiosemicarbazone],4.175
4,Oc1ccc2c(c1)OCO2 [Sesamol],4.358
5,C/C(=C\CNc1ncnc2[nH]cnc12)CO [Zeatin],2.462

# Same assay, conditions: HDFs, WST-1 cell viability test, maximum non-cytotoxic dose
row,SMILES,Max. non-cyt. doses [mM]
1,O=C(OC[C@H]1OC(O)[C@@](O)(COC(=O)c2cc(O)c(O)c(O)c2)[C@@H]1O)c1cc(O)c(O)c(O)c1 (some centres unmarked) [Hamamelitannin],0.1
2,NC(=S)N/N=C/c1ccccc1O [Salicyladehyde thiosemicarbazone],0.5
3,"O=C(O)c1ccccc1O [Salicylic acid, reference compound]",1
4,Oc1ccc2c(c1)OCO2 [Sesamol],0.5
5,C/C(=C\CNc1ncnc2[nH]cnc12)CO [Zeatin],1

# Same assay, conditions: female, human
SMILES,LD50 [mM],Max. non-cyt. doses [mM]
c1coc(CNc2ncnc3[nH]cnc23)c1 [Kinetin],1.835,0.5
"Cc1ncc(CO)c(CO)c1O [Pyridoxine, reference compound]",16.92,5
"O=c1c(O)c(-c2ccc(O)c(O)c2)oc2cc(O)cc(O)c12 [Quercetin, reference compound]",,0.25
"Oc1ccc(/C=C/c2cc(O)cc(O)c2)cc1 [Resveratrol, reference compound]",0.173,0.05
COc1cc(C(=O)O)cc(OC)c1O [Syringic acid],3.65,1
COc1cc(C=O)ccc1O [Vanillin],5.912,1

# Tested on: H4K16ac (the target of SIRT1 and SIRT2)
# Assay: Sirtuin activity assay in HDF: H4K16ac levels (Western blot); on SIRT1,2 H4K16ac: key: ↑: increase; ↓: decrease; hyphens that indicate no effect (-)
# Format: cell-based, human
# Settings: HDF treated 24h
# Procedure: as §1, §2, §3
row,SMILES,effect on H4K16ac levels
1,"O=c1c(O)c(-c2ccc(O)c(O)c2)oc2cc(O)cc(O)c12 [Quercetin, reference compound]",induced a similar effect on both targets
2,"Oc1ccc(/C=C/c2cc(O)cc(O)c2)cc1 [Resveratrol, reference compound]",induced a similar effect on both targets
3,Oc1ccc2c(c1)OCO2 [Sesamol],induced a similar effect on both targets

# Same assay, conditions: HDF treated 24h, Figure 1B
row,SMILES,"SIRT1,2 H4K16ac"
1,O=C(OC[C@H]1OC(O)[C@@](O)(COC(=O)c2cc(O)c(O)c(O)c2)[C@@H]1O)c1cc(O)c(O)c(O)c1 (some centres unmarked) [Hamamelitannin],-
2,c1coc(CNc2ncnc3[nH]cnc23)c1 [Kinetin],-
3,"Cc1ncc(CO)c(CO)c1O [Pyridoxine, reference compound]",-
4,NC(=S)N/N=C/c1ccccc1O [Salicyladehyde thiosemicarbazone],-
5,"O=C(O)c1ccccc1O [Salicylic acid, reference compound]",-
6,COc1cc(C(=O)O)cc(OC)c1O [Syringic acid],-
7,COc1cc(C=O)ccc1O [Vanillin],-
8,C/C(=C\CNc1ncnc2[nH]cnc12)CO [Zeatin],-

# Tested on: UVB-irradiated human dermal fibroblasts (HDFs)
# Assay: UVB-induced senescence assay: SA-β-Gal staining; on β-Gal: key: ↑: increase; ↓: decrease; hyphens that indicate no effect (-)
# Format: cell-based
# Settings: HDF, 2 cycles of UVB, compound day 1 to 7, Figure 2B
# Procedure: (§5) In the second approach, we established a method for inducing senescence in these cells with 2 cycles of UVB irradiation 72h apart (Figure 2A). The use of UVA to induce senescence was discarded due to its considerably longer time requirement, being unsuitable to screen 30 compounds within a reasonable period. Cells were treated with these compounds throughout the duration of the assay and cellular senescence was monitored with two markers: accumulation of SA-β-galactosidase (SA-β-Gal) activity, and the decrease in expression of HAS2 (hyaluronic acid synthase 2), a previously reported marker of skin senescence.
# (§6) Figure 2 (A) Schematic representation of the protocol for senescence induction using UVB irradiation. Cells were treated -/+ the compounds from day 1 to 7 after seeding, irradiated with UVB on days 2 and 5 and harvested for analysis on day 7. […] (C) Phase-contrast (left column) and bright field (right column) microscope images of SA-β-Gal staining showing non-irradiated cells, UVB-irradiated cells non-treated and treated with Gallic acid or Shikimic acid at the indicated concentrations. (D) Percentage of SA-β-Gal positive cells and (E) Relative HAS2 mRNA levels in non-irradiated cells, UVB-irradiated cells and UVB-irradiated cells treated with Gallic acid or Shikimic acid at the indicated concentrations. Student T-test, *p<0.05, **p<0.01, ***p<0.001.
# as §4
# (§7) Senescence induction by UVB irradiation For the non-irradiation control conditions, HDF were […]
# (§8) After 24h, culture medium was removed and well plates. After 24h, culture medium was removed replaced by fresh cell culture medium containing the and replaced with fresh cell culture medium containing compounds at different concentrations. After 24h, the compounds at different concentrations. […]
# (§9) cell culture medium was removed, and cells were cells/plate in fresh cell culture medium containing the irradiated at 25 mJ/cm2 of UVB light (312 nm) in a Bio- compound in 6-well plates. After 3 days, cells were […]
# (§10) amount of PBS. PBS was then removed and fresh cell fresh cell culture medium containing the compound in culture medium with the compound was added to each 6-well plates. After 2 days, cells were processed well. After 3 days, cells were irradiated again under the according to the qPCR, β-Gal staining, apoptosis, cell same conditions. After 2 days, cells were processed cycle or immunofluorescence protocols. according to the qPCR, β-Gal staining, apoptosis, cell cycle or immunofluorescence protocols.
row,SMILES,β-Gal
1,O=C(OC[C@H]1OC(O)[C@@](O)(COC(=O)c2cc(O)c(O)c(O)c2)[C@@H]1O)c1cc(O)c(O)c(O)c1 (some centres unmarked) [Hamamelitannin],-
2,c1coc(CNc2ncnc3[nH]cnc23)c1 [Kinetin],-
3,"Cc1ncc(CO)c(CO)c1O [Pyridoxine, reference compound]",-
4,"O=c1c(O)c(-c2ccc(O)c(O)c2)oc2cc(O)cc(O)c12 [Quercetin, reference compound]",-
5,NC(=S)N/N=C/c1ccccc1O [Salicyladehyde thiosemicarbazone],-
6,"O=C(O)c1ccccc1O [Salicylic acid, reference compound]",-
7,COc1cc(C(=O)O)cc(OC)c1O [Syringic acid],-
8,COc1cc(C=O)ccc1O [Vanillin],-
9,C/C(=C\CNc1ncnc2[nH]cnc12)CO [Zeatin],-

# Same assay, conditions: UVB-irradiated HDF
row,SMILES,SA-β-Gal accumulation/staining
1,"Oc1ccc(/C=C/c2cc(O)cc(O)c2)cc1 [Resveratrol, reference compound]",increased SA-β-Gal staining

# Same assay, conditions: UVB-irradiated HDF, SA-β-Gal and HAS2 markers
row,SMILES,prevention of UV-induced cellular senescence
1,Oc1ccc2c(c1)OCO2 [Sesamol],did not prevent cellular senescence

# Tested on: HAS2 (hyaluronic acid synthase 2)
# Assay: UVB-induced senescence assay: HAS2 gene expression (qPCR)
# Format: cell-based, human
# Settings: HDF, 2 cycles of UVB, compound day 1 to 7, Figure 2B
# Procedure: as §5, §6
# RNA was extracted from cell pellets using the Total RNA Purification Kit (Norgen, Canada), according to the manufacturer’s protocol. Extracted RNA was quantified using a NanoDrop® ND-1000 UV-Vis Spectrophotometer (Thermo Fisher Scientific, USA) and 300 ng of RNA were retrotranscribed to cDNA using the PrimeScriptTM RT reagent kit (Takara Bio Inc., Japan). cDNA was diluted 1/10 in ultrapure water and qPCR mix was prepared by adding cDNA (12 ng), SYBR green supermix (Bio Rad, USA), forward and reverse primers (0.2μM). The primers and their respective sequences are listed in Supplementary Table 1. qPCR protocol included one step at 95° C for 30 s, 40 cycles at 95° C for 10s, and 60° C for 1min. The results were analyzed with Bio-Rad CFX Manager software. BACT was used as a housekeeping gene to normalize gene expression.
# as §7, §8, §9, §10
row,SMILES,HAS2 expression
1,O=C(OC[C@H]1OC(O)[C@@](O)(COC(=O)c2cc(O)c(O)c(O)c2)[C@@H]1O)c1cc(O)c(O)c(O)c1 (some centres unmarked) [Hamamelitannin],-
2,c1coc(CNc2ncnc3[nH]cnc23)c1 [Kinetin],-
3,"Cc1ncc(CO)c(CO)c1O [Pyridoxine, reference compound]",-
4,"Oc1ccc(/C=C/c2cc(O)cc(O)c2)cc1 [Resveratrol, reference compound]",-
5,NC(=S)N/N=C/c1ccccc1O [Salicyladehyde thiosemicarbazone],-
6,"O=C(O)c1ccccc1O [Salicylic acid, reference compound]",-
7,Oc1ccc2c(c1)OCO2 [Sesamol],-
8,COc1cc(C(=O)O)cc(OC)c1O [Syringic acid],-
9,COc1cc(C=O)ccc1O [Vanillin],-
10,C/C(=C\CNc1ncnc2[nH]cnc12)CO [Zeatin],-

# Same assay, conditions: UVB-irradiated HDF
row,SMILES,HAS2 expression
1,"O=c1c(O)c(-c2ccc(O)c(O)c2)oc2cc(O)cc(O)c12 [Quercetin, reference compound]",only promoted HAS2 upregulation
